Results published in the supplement of paper PMC11061612.

Columns and labels:
[1] = system: Becker (Low Grade Glioma); assay: Bliss excess, mean over the matrix (fraction); higher = more synergy
How it was run: (§1)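 Bliss excess equals the observed combination effect minus the expected value EA + EB − EA·EB, where EA and EB are the effects of each agent alone. Combination Emax is the second-highest inhibition within the matrix. Inhibition was scaled from CellTiter-Glo 2.0 luminescence, with 0 set by vehicle wells and 1 by blank wells, after 72 hours of two-drug dosing of cells plated in 1536-well plates.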

CHL-1 (Melanoma) [2] = assay: as above
How it was run: as §1

[3] = system: CML-T1 (Chronic Myelogenous Leukemia); assay: as above
How it was run: as §1

[4] = system: COLO-684 (Endometrial Carcinoma); assay: as above
How it was run: as §1

[5] = system: EB-3 (Burkitt's Lymphoma); assay: as above
How it was run: as §1

[6] = system: FLO-1 (Esophageal Adenocarcinoma); assay: as above
How it was run: as §1

[7] = system: HCC-44 (Lung Adenocarcinoma); assay: as above
How it was run: as §1

KYM-1 (Rhabdomyosarcoma) [8] = assay: as above
How it was run: as §1

[9] = system: KYSE-70 (Esophageal Squamous Cell Carcinoma); assay: as above
How it was run: as §1

[10] = system: LAMA-84 (Chronic Myelogenous Leukemia); assay: as above
How it was run: as §1

[11] = system: LOUCY (T-Lymphoblastic Leukemia); assay: as above
How it was run: as §1

[12] = system: NCI-H1755 (Lung Adenocarcinoma); assay: as above
How it was run: as §1

[13] = system: NCI-H810 (Non-Small Cell Lung Carcinoma); assay: as above
How it was run: as §1

[14] = system: NKM-1 (Acute Myeloid Leukemia); assay: as above
How it was run: as §1

[15] = system: OV-90 (Ovarian Carcinoma); assay: as above
How it was run: as §1

[16] = system: PANC-02-03 (Pancreatic Carcinoma); assay: as above
How it was run: as §1

[17] = system: PC-14 (Lung Adenocarcinoma); assay: as above
How it was run: as §1

[18] = system: RMG-I (Ovarian Carcinoma); assay: as above
How it was run: as §1

[19] = system: SK-MM-2 (Plasma Cell Myeloma); assay: as above
How it was run: as §1

[20] = system: SW684 (Other Solid Carcinomas); assay: as above
How it was run: as §1

[21] = system: Becker (Low Grade Glioma); assay: combination Emax (second highest fraction inhibited in the dose matrix, 72 h); higher = more inhibition; extreme values may be limits of the assay
How it was run: as §1

CHL-1 (Melanoma) [22] = assay: as above
How it was run: as §1

[23] = system: CML-T1 (Chronic Myelogenous Leukemia); assay: as above
How it was run: as §1

[24] = system: COLO-684 (Endometrial Carcinoma); assay: as above
How it was run: as §1

[25] = system: EB-3 (Burkitt's Lymphoma); assay: as above
How it was run: as §1

[26] = system: FLO-1 (Esophageal Adenocarcinoma); assay: as above
How it was run: as §1

[27] = system: HCC-44 (Lung Adenocarcinoma); assay: as above
How it was run: as §1

KYM-1 (Rhabdomyosarcoma) [28] = assay: as above
How it was run: as §1

[29] = system: KYSE-70 (Esophageal Squamous Cell Carcinoma); assay: as above
How it was run: as §1

[30] = system: LAMA-84 (Chronic Myelogenous Leukemia); assay: as above
How it was run: as §1

[31] = system: LOUCY (T-Lymphoblastic Leukemia); assay: as above
How it was run: as §1

[32] = system: NCI-H1755 (Lung Adenocarcinoma); assay: as above
How it was run: as §1

[33] = system: NCI-H810 (Non-Small Cell Lung Carcinoma); assay: as above
How it was run: as §1

[34] = system: NKM-1 (Acute Myeloid Leukemia); assay: as above
How it was run: as §1

[35] = system: OV-90 (Ovarian Carcinoma); assay: as above
How it was run: as §1

[36] = system: PANC-02-03 (Pancreatic Carcinoma); assay: as above
How it was run: as §1

[37] = system: PC-14 (Lung Adenocarcinoma); assay: as above
How it was run: as §1

[38] = system: RMG-I (Ovarian Carcinoma); assay: as above
How it was run: as §1

[39] = system: SK-MM-2 (Plasma Cell Myeloma); assay: as above
How it was run: as §1

[40] = system: SW684 (Other Solid Carcinomas); assay: as above
How it was run: as §1

SMILES	Bliss excess [1]	Bliss excess (CHL-1 (Melanoma) [2])	Bliss excess [3]	Bliss excess [4]	Bliss excess [5]	Bliss excess [6]	Bliss excess [7]	Bliss excess (KYM-1 (Rhabdomyosarcoma) [8])	Bliss excess [9]	Bliss excess [10]	Bliss excess [11]	Bliss excess [12]	Bliss excess [13]	Bliss excess [14]	Bliss excess [15]	Bliss excess [16]	Bliss excess [17]	Bliss excess [18]	Bliss excess [19]	Bliss excess [20]	combination Emax [21]	combination Emax (CHL-1 (Melanoma) [22])	combination Emax [23]	combination Emax [24]	combination Emax [25]	combination Emax [26]	combination Emax [27]	combination Emax (KYM-1 (Rhabdomyosarcoma) [28])	combination Emax [29]	combination Emax [30]	combination Emax [31]	combination Emax [32]	combination Emax [33]	combination Emax [34]	combination Emax [35]	combination Emax [36]	combination Emax [37]	combination Emax [38]	combination Emax [39]	combination Emax [40]
C[C@@H](Nc1cc(F)cc(F)c1)c1cc(C(=O)N(C)C)cc2c(=O)cc(N3CCOCC3)oc12 [AZD8186] + CC(=O)c1c(C)c2cnc(Nc3ccc(N4CCNCC4)cn3)nc2n(C2CCCC2)c1=O [Palbociclib] (first compound max 10 µM, 7x7, partner max 10 µM)	0.127	0.0104	-0.0045	0.0174	0.0129	0.0479	0.0091	-0.031	-0.0106	0.083	0.187	0.069	-0.0224	-0.0435	-0.0541	-0.0157	0.0852	0.0104	0.0299	-0.0005	0.628	0.458	0.931	0.729	0.399	0.599	0.728	0.702	0.355	0.554	0.504	0.602	0.371	0.83	0.137	0.343	0.469	0.497	0.35	0.503
C[C@@H](Oc1cc(-c2cnn(C3CCNCC3)c2)cnc1N)c1c(Cl)ccc(F)c1Cl [Crizotinib] + CC1=C(C(=CC=C1)Cl)NC(=O)C2=CN=C(S2)NC3=CC(=NC(=N3)C)N4CCN(CC4)CCO [Dasatinib] (first compound max 10 µM, 7x7, partner max 2 µM)	0.1	-0.0401	-0.0958	-0.049	-0.0181	0.0436	0.101	-0.0389	-0.0068	0.0136	-0.0383	0.0591	-0.0726	-0.0197	0.0304	-0.0328	0.0183	0.0034	-0.0416	0.0215	0.648	0.349	0.987	0.41	0.639	1	0.962	0.917	0.423	1	0.674	0.983	0.244	0.971	0.591	0.606	1	0.737	0.303	0.758
C[C@@H](Oc1cc(-c2cnn(C3CCNCC3)c2)cnc1N)c1c(Cl)ccc(F)c1Cl [Crizotinib] + Cn1cnc2c(F)c(Nc3ccc(Br)cc3Cl)c(C(=O)NOCCO)cc21 [Selumetinib] (first compound max 10 µM, 7x7, partner max 10 µM)	0.0409	-0.0464	-0.0165	-0.0629	-0.0834	0.031	-0.0103	-0.0202	-0.0364	0.0176	-0.0249	-0.006	-0.123	-0.0543	0.0569	-0.0458	-0.0183	0.0091	-0.0442	-0.0262	0.661	0.0893	0.957	0.452	0.625	0.878	0.916	0.92	0.255	1	0.724	0.983	0.212	0.906	0.742	0.713	0.89	0.59	0.377	0.39
CS(=O)(=O)CCNCc1ccc(-c2ccc3ncnc(Nc4ccc(OCc5cccc(F)c5)c(Cl)c4)c3c2)o1 [Lapatinib] + Cn1cnc2c(F)c(Nc3ccc(Br)cc3Cl)c(C(=O)NOCCO)cc21 [Selumetinib] (first compound max 10 µM, 7x7, partner max 10 µM)	-0.0589	-0.0114	-0.0822	-0.0658	-0.0414	-0.004	0.0326	0.0148	-0.0319	0.0352	0.0378	-0.0173	-0.0554	0.0001	-0.0289	0.0604	0.0206	-0.0833	-0.0116	-0.0411	0.579	0.475	0.637	0.349	0.697	0.572	0.749	0.407	0.214	0.912	0.584	0.539	0.121	0.652	0.729	0.805	0.989	0.586	0.126	0.281
O=C(c1cc(Cc2n[nH]c(=O)c3ccccc23)ccc1F)N1CCN(C(=O)C2CC2)CC1 [Olaparib] + CC1(C)CCC(CN2CCN(c3ccc(C(=O)NS(=O)(=O)c4ccc(NCC5CCOCC5)c([N+](=O)[O-])c4)c(Oc4cnc5[nH]ccc5c4)c3)CC2)=C(c2ccc(Cl)cc2)C1 [Venetoclax] (first compound max 10 µM, 7x7, partner max 1 µM)	-0.0134	-0.0355	0.0685	-0.0346	-0.0328	-0.0251	-0.0278	-0.0388	-0.039	-0.003	0.0365	-0.0395	-0.0541	0.257	-0.0377	-0.0386	-0.0071	-0.0398	0.0141	-0.0606	0.198	0.171	0.946	0.259	0.162	0.209	0.177	0.446	0.0967	0.211	1	0.126	0.271	0.976	0.204	0.107	0.142	0.282	1	0.141
O=C(c1cc(Cc2n[nH]c(=O)c3ccccc23)ccc1F)N1CCN(C(=O)C2CC2)CC1 [Olaparib] + CN(CC[C@H](CSC1=CC=CC=C1)NC2=C(C=C(C=C2)S(=O)(=O)NC(=O)C3=CC=C(C=C3)N4CCC(CC4)[C@H](C5=CC=CC=C5C6=CC=C(C=C6)Cl)O)S(=O)(=O)C(F)(F)F)CCO [AZD4320] (first compound max 10 µM, 7x7, partner max 1 µM)	0.0148	-0.0175	0.0456	-0.0372	-0.0394	-0.0338	-0.0367	-0.0543	-0.0377	-0.0603	-0.0261	-0.0387	-0.0701	0.0827	-0.0165	-0.0488	-0.0113	-0.0382	0.0047	-0.0717	0.164	0.2	0.999	0.213	0.158	0.39	0.173	0.576	0.151	0.617	1	0.159	0.659	1	0.546	0.198	0.199	0.534	1	0.228
O=C(c1cc(Cc2n[nH]c(=O)c3ccccc23)ccc1F)N1CCN(C(=O)C2CC2)CC1 [Olaparib] + COc1nnc2ccc(N3CCC(c4ccc(OCCN5CCN(C)C(=O)[C@H]5C)cc4)CC3)nn12 [AZD5153] (first compound max 10 µM, 7x7, partner max 1 µM)	-0.0004	-0.0554	-0.0113	-0.0132	-0.0549	-0.0174	-0.0341	-0.0479	-0.0305	-0.0335	0.0304	-0.0453	-0.0406	-0.0231	-0.0144	-0.0683	-0.0284	-0.0288	-0.032	-0.0857	0.397	0.418	0.852	0.564	0.694	0.575	0.593	0.862	0.389	0.8	0.749	0.498	0.671	0.898	0.402	0.591	0.431	0.536	0.875	0.415
